Activity calls are given as the source filed them. The rule behind the calls is not given here.
Columns and labels:
[1] = Drug uptake in human KU812 cells assessed as membrane penetration by measuring increase in fluorescence intensity at 5 umol/L incubated for 2 hrs by flow cytometry relative to C9C; assay type: ADME, cell-based; conditions: ku812, 2 h, 5 µM, dose 5 µmol/L
[2] = Drug uptake in human K562 cells assessed as membrane permeability by measuring increase in fluorescence intensity at 5 umol/L incubated for 2 hrs by flow cytometry relative to THP-1 cells; assay type: ADME, cell-based; conditions: k562, 2 h, 5 µM, dose 5 µmol/L
[3] = Drug uptake in human KU812 cells assessed as membrane permeability by measuring increase in fluorescence intensity at 5 umol/L incubated for 2 hrs by flow cytometry relative to THP-1 cells; assay type: ADME, cell-based; conditions: ku812, 2 h, 5 µM, dose 5 µmol/L
[4] = Drug uptake in human K562 cells assessed as increase in fluorescence intensity at 1 to 10 uM incubated for 2 hrs by flow cytometry; assay type: ADME, cell-based; conditions: k562, 2 h, dose 1-10 µM
[5] = Drug uptake in human KU812 cells assessed as increase in fluorescence intensity at 1 to 10 uM incubated for 2 hrs by flow cytometry; assay type: ADME, cell-based; conditions: ku812, 2 h, dose 1-10 µM
[6] = Drug uptake in human K562 cells assessed as increase in fluorescence intensity at 5 umol/L measured for 5 to 240 mins by flow cytometry; assay type: ADME, cell-based; conditions: k562, 5 µM, TDE = time-dependent effect, time 5-240 min, dose 5 µmol/L
[7] = Drug uptake in human CCRF-CEM cells assessed as increase in fluorescence intensity at 5 umol/L measured for 5 to 240 mins by flow cytometry; assay type: ADME, cell-based; conditions: 5 µM, TDE = time-dependent effect, time 5-240 min, dose 5 µmol/L
[8] = Drug uptake in human KU812 cells assessed as increase in fluorescence intensity at 1 to 10 umol/L incubated for 2 hrs by cell imaging based fluorescence microscopic analysis; assay type: ADME; conditions: ku812, 2 h, dose 1-10 µmol/L
[9] = Drug uptake in human CCRF-CEM cells assessed as increase in fluorescence intensity at 1 to 10 umol/L incubated for 2 hrs by cell imaging based fluorescence microscopic analysis; assay type: ADME; conditions: dose 1-10 µmol/L
[10] = Drug uptake in human THP-1 cells assessed as increase in fluorescence intensity at 10 umol/L incubated for 2 hrs by cell imaging based fluorescence microscopic analysis; assay type: ADME; conditions: thp-1, 2 h, 10 µM, dose 10 µmol/L
[11] = Drug uptake in human K562 cells assessed as perinuclear distribution and colocalization with nucleus at 10 umol/L incubated for 2 hrs by confocal laser microscopy; assay type: ADME, cell-based; conditions: k562, 2 h, 10 µM, dose 10 µmol/L
[12] = Drug uptake in human K562 cells assessed as increase in fluorescence intensity at 5 umol/L pretreated with endocytosis inhibitor, nystatin for 0.5 hrs followed by incubation with compound for 2 hrs by FACS analysis; assay type: ADME, cell-based; conditions: k562, 2 h, 5 µM, dose 5 µmol/L
[13] = Drug uptake in human K562 cells assessed as fluorescence intensity at 5 umol/L pretreated with endocytosis inhibitor, chloroquine for 0.5 hrs followed by incubation with compound for 2 hrs by FACS analysis; assay type: ADME, cell-based; conditions: k562, 2 h, 5 µM, dose 5 µmol/L
[14] = Drug uptake in human K562 cells assessed as fluorescence intensity at 5 umol/L pretreated with endocytosis inhibitor, methyl-beta-cyclodextrin for 0.5 hrs followed by incubation with compound for 2 hrs by FACS analysis; assay type: ADME, cell-based; conditions: k562, 2 h, 5 µM, dose 5 µmol/L
[15] = Stability of the compound in fetal bovine serum assessed as parent compound remaining measured after 8 hrs by HPLC-MS analysis; assay type: ADME, cell-free, Bos taurus; conditions: cattle, read-out: Stability
[16] = Stability of the compound in fetal bovine serum assessed as parent compound remaining measured after 12 hrs by HPLC-MS analysis; assay type: ADME, cell-free, Bos taurus; conditions: cattle, read-out: Stability
K562 [17] = test: Potentiation of IMA-PROTAC-induced cytotoxicity against human K562 cells assessed as inhibition of cell growth at compound: IMA-PROTAC concentration ratio of 5:1 incubated for 48 hrs in presence of 3 umo/L IMA-PROTAC by MTT assay; assay type: functional, cell-based
K562 [18] = test: Potentiation of IMA-PROTAC-induced cytotoxicity against human K562 cells assessed as inhibition of cell growth at compound: IMA-PROTAC concentration ratio of 5:1 incubated for 48 hrs in presence of 10 to 30 umo/L IMA-PROTAC by MTT assay relative to IMA-PROTAC; assay type: functional
[19] = Cytotoxicity against human K562 cells assessed as cell viability at 0.01 to 100 uM incubated for 48 hrs by MTT assay; assay type: toxicity, cell-based; conditions: dose 0.01-100 µM, read-out: Activity
[20] = Cytotoxicity against human KU812 cells assessed as cell viability at 0.01 to 100 uM incubated for 48 hrs by MTT assay; assay type: toxicity, cell-based; conditions: dose 0.01-100 µM, read-out: Activity
[21] = Cytotoxicity against human CCRF-CEM cells assessed as cell viability at 0.01 to 100 uM incubated for 48 hrs by MTT assay; assay type: toxicity, cell-based; conditions: dose 0.01-100 µM, read-out: Activity
[22] = Cytotoxicity against human THP-1 cells assessed as cell viability at higher concentrations incubated for 48 hrs by MTT assay; assay type: toxicity, cell-based; conditions: read-out: Activity
K562 [23] = test: Increase in membrane permeability of IMA-PROTAC in human K562 cells assessed as potentiation of IMA-PROTAC-induced Bcr-Abl degradation at PROTAC to compound concentration ratio of 1:5 pretreated with proteasome inhibitor, MG132 and carfilzomib followed by incubation with compound for 48 hrs in presence of 3 umol/L IMA-PROTAC by western blot analysis; assay type: functional, cell-based
K562 [24] = test: Increase in membrane permeability of IMA-PROTAC in human K562 cells assessed as potentiation of IMA-PROTAC-induced Bcr-Abl degradation at PROTAC to compound concentration ratio of 1:3 incubated for 48 hrs in presence of 3 umol/L IMA-PROTAC by western blot analysis; assay type: functional, cell-based
K562 [25] = test: Induction of apoptosis in human K562 cells assessed as viable cells at PROTAC to compound concentration ratio of 1:5 incubated for 48 hrs in presence of 3 umol/L IMA-PROTAC by AnnexinV-FITC/PI staining based flow cytometry (reference value: 99.85%); assay type: functional
K562 [26] = test: Induction of apoptosis in human K562 cells assessed as early apoptotic cells at PROTAC to compound concentration ratio of 1:5 incubated for 48 hrs in presence of 3 umol/L IMA-PROTAC by AnnexinV-FITC/PI staining based flow cytometry (reference value: 0.03%); assay type: functional
K562 [27] = test: Induction of apoptosis in human K562 cells assessed as late apoptotic cells at PROTAC to compound concentration ratio of 1:5 incubated for 48 hrs in presence of 3 umol/L IMA-PROTAC by AnnexinV-FITC/PI staining based flow cytometry (reference value: 0.01%); assay type: functional
[28] = Interaction with IMA-PROTAC assessed as induction of formation of micelle cluster with uniform and distinct spherical morphology by transmission electron microscopy; assay type: physicochemical
[29] = Interaction with IMA-PROTAC assessed as induction of assembly formation by transmission electron microscopy; assay type: physicochemical
[30] = Increase in membrane permeation of IMA-PROTAC in human K562 cells assessed as increase in intracellular content of IMA-PROTAC incubated for 3 hrs by HPLC-MRM-MS analysis relative to control; assay type: functional
K562 [31] = test: Increase in membrane permeability of IMA-PROTAC in human K562 cells assessed as potentiation of IMA-PROTAC-induced inhibition of STAT5 phosphorylation at PROTAC to compound concentration ratio of 1:3 incubated for 48 hrs in presence of 3 umol/L IMA-PROTAC by western blot analysis; assay type: functional, cell-based

CC(C)C[C@H](NC(=O)[C@H](Cc1csc2ccccc12)NC(=O)[C@@H](Cc1ccccc1)NC(=O)[C@H](Cc1ccccc1)NC(=O)CNC(=O)[C@@H](N)CS)C(=O)N[C@@H](CCCNC(=N)N)C(=O)N[C@@H](CO)C(=O)N[C@@H](CS)C(=O)O
fold change (FC) [1]: 4.45
fold change (FC) [2]: 8.8
fold change (FC) [3]: 4
Drug uptake [4]: Dose-Dependent Effect
Drug uptake [5]: Dose-Dependent Effect
Drug uptake [6]: Tde
Drug uptake [7]: Tde
Drug uptake [8]: Active
Drug uptake [9]: Active
Drug uptake [10]: Active
Drug uptake [11]: Active
Drug uptake [12]: Active
Drug uptake [13]: Not Active
Drug uptake [14]: Not Active
remaining at 8 h [15]: 100%
remaining at 12 h [16]: 80%
Activity (K562 [17]): inactive
inhibition (INH) (K562 [18]): 20%
viability at 48 h, up to 100 µM [19]: > 75%
viability at 48 h, up to 100 µM [20]: > 75%
viability at 48 h, up to 100 µM [21]: > 75%
viability at 48 h [22]: > 75%
Activity (K562 [23]): inactive
Activity (K562 [24]): Active
Activity (K562 [25]): 63.19%
Activity (K562 [26]): 22.82%
Activity (K562 [27]): 13.98%
Activity [28]: Not Active
Activity [29]: Not Active
fold change (FC) [30]: 1.72
Activity (K562 [31]): Active

Reference: ChEMBL document CHEMBL6071133, “Discovery of novel penetrating peptides able to target human leukemia and lymphoma for enhanced PROTAC delivery” (Eur J Med Chem, 2024)
